{"source": "ChEMBL document CHEMBL5226293", "about": "“Biologically Significant and Recently Isolated Alkaloids from Endophytic Fungi” (2021)", "key": {"[1]": {"test_system": "Mycobacterium tuberculosis", "assay": "Antimycobacterial activity against Mycobacterium tuberculosis assessed as growth inhibition incubated for 7 days by microplate alamar blue bioassay", "type": "functional", "conditions": "168 h, time 7 day"}, "[2]": {"test_system": "Mycolicibacterium smegmatis", "assay": "Antimycobacterial activity against Mycobacterium smegmatis assessed as growth inhibition incubated for 7 days by microplate alamar blue bioassay", "type": "functional", "conditions": "168 h, time 7 day"}}, "data": [{"compound": "O=C(/C=C/C=C/c1ccc2c(c1)OCO2)N1CCCCC1", "note": "[PIPERINE]", "values": [{"measurement": "MIC", "setting": "[1]", "result": 2.62, "unit": "µg/mL"}, {"measurement": "MIC", "setting": "[2]", "result": 1.74, "unit": "µg/mL"}]}]}
